# Experimental data: the NIST ThermoML archive (doi:10.1016/j.jct.2008.12.014)
# ± gives the expanded uncertainty stated by the source.
# Conditions: Liquid, Vibrating tube method
smiles,measurement,setting,value
CC(C)O [propan-2-ol],mass density,"280.21 K, 117.9 kPa",797.61 ± 0.15 kg/m3
same,mass density,"280.21 K, 439.6 kPa",797.89 ± 0.15 kg/m3
same,mass density,"280.21 K, 938.7 kPa",798.29 ± 0.16 kg/m3
same,mass density,"280.21 K, 1328.4 kPa",798.62 ± 0.16 kg/m3
same,mass density,"280.21 K, 1656.6 kPa",798.89 ± 0.16 kg/m3
same,mass density,"280.21 K, 1944.9 kPa",799.14 ± 0.17 kg/m3
same,mass density,"280.21 K, 2440.6 kPa",799.56 ± 0.17 kg/m3
same,mass density,"280.21 K, 2850.6 kPa",799.88 ± 0.18 kg/m3
same,mass density,"280.21 K, 3198 kPa",800.17 ± 0.18 kg/m3
same,mass density,"280.21 K, 3679.1 kPa",800.56 ± 0.18 kg/m3
same,mass density,"280.21 K, 4071.1 kPa",800.9 ± 0.19 kg/m3
same,mass density,"280.21 K, 4437.7 kPa",801.19 ± 0.19 kg/m3
same,mass density,"280.21 K, 4832.6 kPa",801.5 ± 0.19 kg/m3
same,mass density,"280.21 K, 5182.1 kPa",801.8 ± 0.2 kg/m3
same,mass density,"280.21 K, 5559.1 kPa",802.1 ± 0.2 kg/m3
same,mass density,"280.21 K, 5910 kPa",802.39 ± 0.2 kg/m3
same,mass density,"280.21 K, 6334.9 kPa",802.73 ± 0.21 kg/m3
same,mass density,"280.21 K, 6750.9 kPa",803.06 ± 0.21 kg/m3
same,mass density,"280.21 K, 7592 kPa",803.74 ± 0.22 kg/m3
same,mass density,"280.21 K, 7999 kPa",804.07 ± 0.22 kg/m3
same,mass density,"280.21 K, 8329 kPa",804.33 ± 0.23 kg/m3
same,mass density,"280.21 K, 8817 kPa",804.7 ± 0.23 kg/m3
same,mass density,"280.21 K, 9350.6 kPa",805.11 ± 0.24 kg/m3
same,mass density,"280.21 K, 9658.5 kPa",805.38 ± 0.24 kg/m3
same,mass density,"281.21 K, 7166.5 kPa",803.39 ± 0.22 kg/m3
same,mass density,"300.09 K, 186.7 kPa",780.22 ± 0.16 kg/m3
same,mass density,"300.09 K, 610.5 kPa",780.62 ± 0.16 kg/m3
same,mass density,"300.09 K, 953.4 kPa",780.94 ± 0.17 kg/m3
same,mass density,"300.09 K, 1339.5 kPa",781.31 ± 0.17 kg/m3
same,mass density,"300.09 K, 1722.1 kPa",781.66 ± 0.18 kg/m3
same,mass density,"300.09 K, 2044.8 kPa",781.96 ± 0.18 kg/m3
same,mass density,"300.09 K, 2446.4 kPa",782.34 ± 0.18 kg/m3
same,mass density,"300.09 K, 2834.6 kPa",782.7 ± 0.19 kg/m3
same,mass density,"300.09 K, 3224.9 kPa",783.06 ± 0.19 kg/m3
same,mass density,"300.09 K, 3671.1 kPa",783.47 ± 0.2 kg/m3
same,mass density,"300.09 K, 4074.1 kPa",783.84 ± 0.2 kg/m3
same,mass density,"300.09 K, 4362.5 kPa",784.11 ± 0.2 kg/m3
same,mass density,"300.09 K, 4771.8 kPa",784.48 ± 0.21 kg/m3
same,mass density,"300.09 K, 5226.5 kPa",784.89 ± 0.21 kg/m3
same,mass density,"300.09 K, 5579.2 kPa",785.21 ± 0.21 kg/m3
same,mass density,"300.09 K, 6001.6 kPa",785.59 ± 0.22 kg/m3
same,mass density,"300.09 K, 6427.2 kPa",785.98 ± 0.22 kg/m3
same,mass density,"300.09 K, 6780.3 kPa",786.29 ± 0.23 kg/m3
same,mass density,"300.09 K, 7214.7 kPa",786.68 ± 0.23 kg/m3
same,mass density,"300.09 K, 7629.9 kPa",787.05 ± 0.23 kg/m3
same,mass density,"300.09 K, 8020.3 kPa",787.4 ± 0.24 kg/m3
same,mass density,"300.09 K, 8417.5 kPa",787.75 ± 0.24 kg/m3
same,mass density,"300.09 K, 8805.7 kPa",788.1 ± 0.25 kg/m3
same,mass density,"300.09 K, 9212.9 kPa",788.45 ± 0.25 kg/m3
same,mass density,"300.09 K, 9621.5 kPa",788.81 ± 0.25 kg/m3
same,mass density,"325.12 K, 202.7 kPa",757.05 ± 0.17 kg/m3
same,mass density,"325.12 K, 609.4 kPa",757.49 ± 0.18 kg/m3
same,mass density,"325.12 K, 960 kPa",757.87 ± 0.18 kg/m3
same,mass density,"325.12 K, 1253.9 kPa",758.21 ± 0.18 kg/m3
same,mass density,"325.12 K, 1638.8 kPa",758.63 ± 0.19 kg/m3
same,mass density,"325.12 K, 2021 kPa",759.06 ± 0.19 kg/m3
same,mass density,"325.12 K, 2328.8 kPa",759.39 ± 0.2 kg/m3
same,mass density,"325.12 K, 3014.9 kPa",760.15 ± 0.2 kg/m3
same,mass density,"325.12 K, 3321.4 kPa",760.48 ± 0.21 kg/m3
same,mass density,"325.12 K, 3659.4 kPa",760.85 ± 0.21 kg/m3
same,mass density,"325.12 K, 4004.1 kPa",761.22 ± 0.21 kg/m3
same,mass density,"325.12 K, 4399.2 kPa",761.65 ± 0.22 kg/m3
same,mass density,"325.12 K, 4691.2 kPa",761.97 ± 0.22 kg/m3
same,mass density,"325.12 K, 5010.7 kPa",762.32 ± 0.23 kg/m3
same,mass density,"325.12 K, 5383.4 kPa",762.71 ± 0.23 kg/m3
same,mass density,"325.12 K, 5730.5 kPa",763.08 ± 0.23 kg/m3
same,mass density,"325.12 K, 6143.6 kPa",763.52 ± 0.24 kg/m3
same,mass density,"325.12 K, 6525.6 kPa",763.91 ± 0.24 kg/m3
same,mass density,"325.12 K, 6903.2 kPa",764.31 ± 0.25 kg/m3
same,mass density,"325.12 K, 7293.8 kPa",764.72 ± 0.25 kg/m3
same,mass density,"325.12 K, 7661.9 kPa",765.11 ± 0.25 kg/m3
same,mass density,"325.12 K, 7918.6 kPa",765.38 ± 0.26 kg/m3
same,mass density,"325.12 K, 8254.4 kPa",765.72 ± 0.26 kg/m3
same,mass density,"325.12 K, 8755.5 kPa",766.24 ± 0.27 kg/m3
same,mass density,"325.15 K, 2655.8 kPa",759.75 ± 0.2 kg/m3
same,mass density,"350.14 K, 220.4 kPa",731.92 ± 0.18 kg/m3
same,mass density,"350.14 K, 663.4 kPa",732.49 ± 0.19 kg/m3
same,mass density,"350.14 K, 1071.2 kPa",733.03 ± 0.19 kg/m3
same,mass density,"350.14 K, 1412.6 kPa",733.49 ± 0.2 kg/m3
same,mass density,"350.14 K, 1844.7 kPa",734.07 ± 0.2 kg/m3
same,mass density,"350.14 K, 2226.7 kPa",734.58 ± 0.21 kg/m3
same,mass density,"350.14 K, 2644.7 kPa",735.11 ± 0.21 kg/m3
same,mass density,"350.14 K, 2842.7 kPa",735.41 ± 0.22 kg/m3
same,mass density,"350.14 K, 3286.9 kPa",735.99 ± 0.22 kg/m3
same,mass density,"350.14 K, 3630.7 kPa",736.45 ± 0.23 kg/m3
same,mass density,"350.14 K, 4012.2 kPa",736.94 ± 0.23 kg/m3
same,mass density,"350.14 K, 4394.6 kPa",737.43 ± 0.24 kg/m3
same,mass density,"350.14 K, 4757.6 kPa",737.91 ± 0.24 kg/m3
same,mass density,"350.14 K, 5197.9 kPa",738.48 ± 0.25 kg/m3
same,mass density,"350.14 K, 5577.9 kPa",738.96 ± 0.25 kg/m3
same,mass density,"350.14 K, 5939.3 kPa",739.42 ± 0.25 kg/m3
same,mass density,"350.14 K, 6321.3 kPa",739.89 ± 0.26 kg/m3
same,mass density,"350.14 K, 6730.9 kPa",740.41 ± 0.26 kg/m3
same,mass density,"350.14 K, 7119.7 kPa",740.89 ± 0.27 kg/m3
same,mass density,"350.14 K, 7564.4 kPa",741.45 ± 0.27 kg/m3
same,mass density,"350.14 K, 7988.5 kPa",741.97 ± 0.28 kg/m3
same,mass density,"350.14 K, 8472.5 kPa",742.55 ± 0.28 kg/m3
same,mass density,"350.14 K, 8925.8 kPa",743.13 ± 0.29 kg/m3
same,mass density,"350.14 K, 9280.8 kPa",743.56 ± 0.29 kg/m3
same,mass density,"350.14 K, 9676.3 kPa",744.05 ± 0.3 kg/m3
same,mass density,"375.01 K, 349.5 kPa",702.23 ± 0.2 kg/m3
same,mass density,"375.01 K, 703.3 kPa",702.82 ± 0.21 kg/m3
same,mass density,"375.01 K, 1046.8 kPa",703.38 ± 0.21 kg/m3
same,mass density,"375.01 K, 1437.5 kPa",704.01 ± 0.22 kg/m3
same,mass density,"375.01 K, 1791.6 kPa",704.58 ± 0.22 kg/m3
same,mass density,"375.01 K, 2161.7 kPa",705.16 ± 0.23 kg/m3
same,mass density,"375.01 K, 2545.7 kPa",705.76 ± 0.23 kg/m3
same,mass density,"375.01 K, 2909.9 kPa",706.34 ± 0.24 kg/m3
same,mass density,"375.01 K, 3364.1 kPa",707.04 ± 0.24 kg/m3
same,mass density,"375.01 K, 3677.6 kPa",707.53 ± 0.25 kg/m3
same,mass density,"375.01 K, 4083.2 kPa",708.16 ± 0.25 kg/m3
same,mass density,"375.01 K, 4515.7 kPa",708.82 ± 0.26 kg/m3
same,mass density,"375.01 K, 4853.5 kPa",709.33 ± 0.26 kg/m3
same,mass density,"375.01 K, 5280.2 kPa",709.98 ± 0.27 kg/m3
same,mass density,"375.01 K, 5646.9 kPa",710.53 ± 0.27 kg/m3
same,mass density,"375.01 K, 6138.1 kPa",711.26 ± 0.28 kg/m3
same,mass density,"375.01 K, 6447.1 kPa",711.73 ± 0.28 kg/m3
same,mass density,"375.01 K, 6880.9 kPa",712.37 ± 0.29 kg/m3
same,mass density,"375.01 K, 7269.8 kPa",712.94 ± 0.3 kg/m3
same,mass density,"375.01 K, 7772.4 kPa",713.68 ± 0.3 kg/m3
same,mass density,"375.01 K, 8119.2 kPa",714.18 ± 0.31 kg/m3
same,mass density,"375.01 K, 8557.2 kPa",714.81 ± 0.31 kg/m3
same,mass density,"375.01 K, 8987.3 kPa",715.42 ± 0.32 kg/m3
same,mass density,"375.01 K, 9423.8 kPa",716.04 ± 0.32 kg/m3
same,mass density,"375.01 K, 9842.2 kPa",716.64 ± 0.33 kg/m3
same,mass density,"392.57 K, 407.6 kPa",679.26 ± 0.22 kg/m3
same,mass density,"392.57 K, 888.7 kPa",680.18 ± 0.22 kg/m3
same,mass density,"392.57 K, 1171.4 kPa",680.72 ± 0.23 kg/m3
same,mass density,"392.57 K, 1526.6 kPa",681.39 ± 0.23 kg/m3
same,mass density,"392.57 K, 1897.4 kPa",682.08 ± 0.24 kg/m3
same,mass density,"392.57 K, 2272.3 kPa",682.77 ± 0.24 kg/m3
same,mass density,"392.57 K, 2619.1 kPa",683.41 ± 0.25 kg/m3
same,mass density,"392.57 K, 3050.4 kPa",684.2 ± 0.25 kg/m3
same,mass density,"392.57 K, 3411.2 kPa",684.86 ± 0.26 kg/m3
same,mass density,"392.57 K, 3835 kPa",685.63 ± 0.27 kg/m3
same,mass density,"392.57 K, 4095.7 kPa",686.12 ± 0.27 kg/m3
same,mass density,"392.57 K, 4524.9 kPa",686.89 ± 0.28 kg/m3
same,mass density,"392.57 K, 4902.8 kPa",687.57 ± 0.28 kg/m3
same,mass density,"392.57 K, 5283.5 kPa",688.24 ± 0.29 kg/m3
same,mass density,"392.57 K, 5775.9 kPa",689.09 ± 0.29 kg/m3
same,mass density,"392.57 K, 6039.6 kPa",689.55 ± 0.3 kg/m3
same,mass density,"392.57 K, 6476.6 kPa",690.3 ± 0.3 kg/m3
same,mass density,"392.57 K, 6889.7 kPa",691.01 ± 0.31 kg/m3
same,mass density,"392.57 K, 7348 kPa",691.78 ± 0.32 kg/m3
same,mass density,"392.57 K, 7728 kPa",692.42 ± 0.32 kg/m3
same,mass density,"392.57 K, 8172.7 kPa",693.17 ± 0.33 kg/m3
same,mass density,"392.57 K, 8598.3 kPa",693.88 ± 0.33 kg/m3
same,mass density,"392.57 K, 9018.5 kPa",694.57 ± 0.34 kg/m3
same,mass density,"392.57 K, 9405 kPa",695.2 ± 0.34 kg/m3
same,mass density,"392.57 K, 9837.9 kPa",695.89 ± 0.35 kg/m3
